Experimental data reported in patent publication US10441663B2, “Methods for treating cancer” (Bicycle Therapeutics Limited, priority 2016, dated 2019).
pKi: −log10 of the molar value. *1 amine or outer side, *2 acyl side, *3 side chain or, on linkers, in order; H or OH if unused. Where a SMILES comes first, the peptide text is derived from it. Bridges are numbered along the chain shown (N, C = ends). [ ]: non-standard residue; d: D form. The star is where a group is joined. X1 = COc1cc2cc(c1Cl)N(C)C(=O)C[C@H](OC(=O)[C@H](C)N(C)C(=O)CCSSC(C)CCC(=O)*)[C@]1(C)O[C@H]1[C@H](C)[C@@H]1C[C@@](O)(NC(=O)O1)[C@H](OC)/C=C/C=C(\C)C2; 1Nal = N[C@@H](Cc1cccc2ccccc12)C(=O)O; TBMB = c1c(C[*:1])cc(C[*:3])cc1C[*:2]; Tle = CC(C)(C)[C@H](N)C(=O)O; βAla = NCCC(=O)O; Sar = CNCC(=O)O

How the values were obtained:
MT1-MMP = MT1-MMP (Homo sapiens, UniProt P50281); experiment: Fluorescence polarisation competition binding
Experimental: By means of comparison, a non-reducible BDC was prepared, BT1721, which includes a non-reducible maleimide thioether linkage which is […].

[1] = tested on: LU-01-0046 non-small-cell lung carcinoma (NSCLC) PDX model; experiment: Efficacy in LU-01-0046 NSCLC PDX model (high MT1-expressing, docetaxel resistant); format: in vivo, Balb/C nude mice
Excerpt: The objective of the project is to evaluate the in vivo therapeutic efficacy of test articles in the LU-01-0046 non-small-cell lung carcinoma (NSCLC) PDX model. LU-01-0046 is a high MT1-expressing NSCLC that is docetaxel resistant.
Each mouse was inoculated subcutaneously at the right flank with certain kind of tumor fragment (30 mm3) for tumor development. The treatments started when the average tumor volume reaches approximately 150-200 mm^3. The test article administration and the animal numbers in each group are shown in Table 40 which details the experimental design.
Treatment was given until the control tumors reached an average of 1000 mm^3.
Before commencement of treatment all animals will be weighed and the tumor volumes will be measured. Since the tumor volume can affect the effectiveness of any given treatment, mice will be assigned into groups using randomized block design based upon their tumor volumes.
The protocol and any amendment(s) or procedures involving the care and use of animals in this study will be reviewed and approved prior to conduct. […] At the time of routine monitoring, the animals will be checked for any effects of tumor growth and treatments on normal behavior such as mobility, food and water consumption, body weight gain/loss (body weights will be measured twice weekly), eye/hair matting and any other abnormal effect. Death and observed clinical signs will be recorded on the basis of the numbers of animals within each subset.
The major endpoint is to see if the tumor growth can be delayed or mice can be cured. Tumor sizes will be measured twice weekly in two dimensions using a caliper and the volume will be expressed in mm^3 using the formula: V=0.5 a×b^2 where a and b are the long and short diameters of the tumor, respectively. […] T-C is calculated with T as the median time (in days) required for the treatment group tumors to reach a predetermined size (e.g., 1.000 mm^3), and C is the median time (in days) for the control group tumors to reach the same size. […]
TGI is calculated for each group using the formula. […]

COc1cc2cc(c1Cl)N(C)C(=O)C[C@H](OC(=O)[C@H](C)N(C)C(=O)CCSSC(C)CCC(=O)NCCC(=O)N(C)CC(=O)N(C)CC(=O)N(C)CC(=O)N(C)CC(=O)N(C)CC(=O)N(C)CC(=O)N(C)CC(=O)N(C)CC(=O)N(C)CC(=O)N(C)CC(=O)N[C@@H](C)C(=O)N[C@H]1CSCc3cc4cc(c3)CSC[C@H](NC(=O)[C@@H](C)NC(=O)[C@H](Cc3cccc5ccccc35)NC(=O)[C@H](CCC(=O)O)NC(=O)[C@H](CC(N)=O)NC(=O)[C@@H](C)NC1=O)C(=O)N[C@@H](CCC(=O)O)C(=O)N[C@@H](CC(=O)O)C(=O)N[C@@H](Cc1ccccc1)C(=O)N[C@@H](Cc1ccc(O)cc1)C(=O)N[C@@H](CC(=O)O)C(=O)N[C@@H](C(C)(C)C)C(=O)N[C@H](C(N)=O)CSC4)[C@]1(C)O[C@H]1[C@H](C)[C@@H]1C[C@@](O)(NC(=O)O1)[C@H](OC)/C=C/C=C(\C)C2 (stereo partly shown) [BT1718] ({X1-βAla}-[Sar][Sar][Sar][Sar][Sar][Sar][Sar][Sar][Sar][Sar]AC[dA]NE[1Nal][dA]CEDFYD[Tle]C-NH2; linker 12-18-25 via TBMB (inferred)) was tested, and the pKi (MT1-MMP) was 9.05, the tumor response ([1]; 3 mg/kg biw) was “tumor stasis” and the “relapse after cessation of dosing” value ([1]; 10 mg/kg biw) was “lack of relapse”. The tumor response ([1]; 10 mg/kg biw) was “tumor eradication”.
